Laboratory results taken from a compilation of properties of binary mixtures (doi:10.1016/j.molliq.2012.10.030).

Assay: xn = mol fraction of the nth substance listed
Conditions: 101 kPa

Cc1ccccc1N + CC[n+]1ccn(C)c1.F[B-](F)(F)F
speed of sound [m/s]
Conditions	293.15 K	298.15 K	303.15 K	308.15 K
x1 = 0.0684	1639.1	1625	1612.5	1600.1
x1 = 0.0786	–	1626.5	–	1601.3
x1 = 0.1243	–	1634.3	1621.2	1607.9
x1 = 0.1783	–	1645.9	1632	1618
x1 = 0.2255	1668.2	1657.2	1643.2	–
x1 = 0.2781	1679.5	1670.1	–	1640.6
x1 = 0.3234	1689.5	–	1667.1	1651.6
x1 = 0.3712	–	–	1678	1662.1
x1 = 0.4096	1706.3	–	1685.2	1669.1
x1 = 0.4763	1716.8	1710.8	–	1679
x1 = 0.5242	1722.8	1716	1700.5	1683.9
x1 = 0.5781	1726.3	1717.7	1701.7	1685
x1 = 0.6254	1725.7	–	1698.4	–
x1 = 0.6771	1723.3	1709.7	1692.5	1675.6
x1 = 0.7226	1716.8	1700.6	1682.6	1665.6
x1 = 0.7683	1708	1689.4	1670.5	1653.2
x1 = 0.8276	1692.8	1671.5	1651.2	1633.6
x1 = 0.8687	1679	1656.7	1635.4	1617.4

Nc1ccccc1 + CC[n+]1ccn(C)c1.F[B-](F)(F)F
speed of sound [m/s]
Conditions	293.15 K	298.15 K	303.15 K	308.15 K
x1 = 0.0697	–	1622.2	1610.3	–
x1 = 0.0803	1635.7	1622.9	–	1598.9
x1 = 0.1286	1640	1626.7	1614.7	1602.6
x1 = 0.1717	–	1631.2	–	1606.5
x1 = 0.2251	1650.5	1637.2	–	1612.4
x1 = 0.2724	1656.5	–	1630.2	1617.6
x1 = 0.3253	1662.9	–	1636.4	1624.1
x1 = 0.3805	1669.9	–	1642.3	1630.2
x1 = 0.4288	1675	1662	1647.5	1634.5
x1 = 0.4681	1679	1666.2	–	1637.9
x1 = 0.5287	–	1670.4	–	1642
x1 = 0.5755	–	1673.2	–	1643
x1 = 0.6258	–	1673.9	–	1643.3
x1 = 0.6802	–	1673.3	1655.5	–
x1 = 0.7231	–	1672	–	1639.2
x1 = 0.7785	1685.7	1667.6	1648.9	1634.7
x1 = 0.8257	1681.7	1663.2	1644.1	1628.9
x1 = 0.8697	–	–	1638.4	–

CNc1ccccc1 + CC[n+]1ccn(C)c1.F[B-](F)(F)F
speed of sound [m/s]
Conditions	293.15 K	298.15 K	303.15 K	308.15 K
x1 = 0.0712	–	1614.7	1602.2	1590.8
x1 = 0.0944	–	1613.8	1601	–
x1 = 0.1175	–	1613.2	1600.3	1588.7
x1 = 0.1685	1624.3	1612.5	1599.3	1587.6
x1 = 0.2164	–	–	1599.5	1587
x1 = 0.2818	1626.5	1613.9	–	1587.3
x1 = 0.3365	1628.2	–	1601.2	1587.4
x1 = 0.3805	1629.4	1616.2	1602.2	–
x1 = 0.4166	1630.8	1617.3	1602.8	1587.8
x1 = 0.4775	1632.2	1617.7	1602.8	1587.7
x1 = 0.5287	1632.6	1617.9	1602.4	1586.3
x1 = 0.5855	1631.8	1616.5	1601.1	1584.2
x1 = 0.6144	1631	1615.8	1599.8	1583
x1 = 0.6638	1629.2	1612.8	1596.4	–
x1 = 0.7202	1625.3	1608.7	1591.8	1573.8
x1 = 0.7822	1618.8	1601.9	1584.4	1566.7
x1 = 0.8343	1612	1594.6	1577.1	1558.8
x1 = 0.8775	1605.6	1587.8	1570.3	1551.7
